Data taken from publication PMC12169104, “Towards the development of supramolecular self-associating amphiphiles as antibiofilm agents against Pseudomonas aeruginosa and Candida albicans biofilms” (Journal of Materials Chemistry. B, 2025).
Read-outs that look alike come from different tables or passages of the source.

Legend:
[1] = Bi-directional permeability in Caco-2 cell line; type: in vitro ADME; conditions: human; for recovery at 2 h, 5 µM: Caco-2, pH 7.4, SSA recovered from the assay after 2 hours
Method: Bi-directional Permeability in Caco-2 Cell Line:
The bi-directional permeability in Caco-2 cell lines was determined by seeding cells onto an HTS Transwell plate. Cells were cultivated for 14-18 days in a cell culture incubator at 37°C, 5% CO2, 95% relative humidity. Cell culture medium was replaced every other day. To assess monolayer integrity the transepithelial electrical resistance (TEER) across the monolayer was measured using Millicell Epithelial volt-ohm meter prior to assay and Lucifer yellow (LY) fluorescence measurement post- […]
Test compound was prepared in DMSO and diluted in Hank’s Balanced Saline Solution (HBSS, pH 7.4) to a final concentration of 5 µM. Compound was added to the donor compartment of the transwell plate for both apical to basolateral (A>B) and basolateral to apical (B>A) measurements, with blank HBSS being added to the receiver compartment. The transwell plate was then incubated at 37°C, 5% […]
Samples were shaken at T=0 and T=2 hours to determine the concentration of initial donor sample, and the concentration of receiver and donor wells post-incubation, respectively. The samples were quenched with solvent containing internal standard (IS). The supernatant was mixed with an appropriate volume of ultra-pure water before LC-MS/MS analysis. […]
coupled to a Sciex 5500+ (AB Inc., Illinois). Separation of compounds was achieved using an XSelect HSS T3 XP (2.5µm,2.1x50mm) (Waters Ltd., Wilmslow) column at a temperature of 40°C. A binary mobile phase gradient at a flow rate of 0.7 mL/min was used. Initial LC conditions comprised of 95% solvent A (0.1% formic acid in water) and 5% solvent B (0.1% formic acid in acetonitrile). This was ramped to 95% solvent B at 1.2 minutes, held for 0.4 minutes and then immediately returned to initial conditions. Sample analysis was by electrospray ionisation combined with multiple reaction monitoring in positive ion mode. The ionspray voltage was 5500V.

[2] = Metabolic stability in liver microsomes; type: in vitro ADME, human
Method: Section S5: In vitro and in vivo studies
These studies were performed by Contract Research Organisation (CRO) Pharmaron. The methodology provided within the ESI is published within the express permission of this organisation.
The percentage of a compound recovered during the analysis process should be 100 %; any deviation from this value indicates experimental limitations such as unintended potential non-specific binding events to experimental equipment, solubility issues, etc.
In vitro Absorption, Distribution and Metabolism studies methods: […]
The ionisation
Kinetic Solubility Determination in PBS pH 7.4:
The stock solutions of test and control compounds were prepared in DMSO at 10 mM. From this a 300 µM solution was prepared in duplicate in 100 mM Phosphate Buffered Saline (PBS, pH 7.4 ± 0.1). These solutions were then shaken at 1100rpm for 2 hours at 25°C. […]
Metabolic Stability in Rat, Mouse and Human Liver Microsomes :
The metabolic stability of compounds at a concentration of 1 µM, in rat, mouse and human liver microsomes (BD Gentest, Franklin Lakes NJ) was measured following incubation with hepatic microsomes (0.5 mg of protein / mL) in the presence and absence of cofa ctor (NADPH) at 37 °C.
Aliquots of each incubation were removed at 0.5, 5, 15, 30 and 60 minutes. The reaction was stopped by the addition of cold acetonitrile containing analytical internal standard (IS). […]

[3] = In vivo pharmacokinetic study, intravenous; set-up: species or system female CD-1 mice; conditions: IV 1 mg/kg
Method: In vitro Absorption, Distribution and Metabolism results […]
In vivo Pharmacokinetic study methods
SSA 5 was dosed at 1 mg/kg to female CD -1 mice (n=3) via an intravenous tail vein bolus administration, dose formulation was a solution in 2% DMSO/98% Water. Blood was sampled from the dorsal metatarsal vein at each time point (n=8) and added to tubes containing anticoagulant K2-EDTA. Blood samples were extracted by protein precipitation. Blood concentrations were calculated through UPLC-MS/MS techniques, with internal standard. The lower limit of quantitation was 6.4 nM. PK parameters were calculated using Phoenix WinNonlin version 8.3.

[4] = mouse, whole blood, blood, female CD-1 mice

- efflux ratio at 2 h, 5 µM ([1]; Caco-2, pH 7.4): > 73.9
- recovery at 2 h, 5 µM ([1]; read-out: % Recovery (A-B)): < 98.4%
- recovery at 2 h, 5 µM ([1]; read-out: % Recovery (B-A)): 82.6%
- Papp A→B at 2 h, 5 µM ([1]; Caco-2, pH 7.4, apical to basolateral, 5 µM, 2 hours): < 0.06 ×10⁻⁶ cm/s
- Papp B→A at 2 h, 5 µM ([1]; Caco-2, pH 7.4, basolateral to apical, 5 µM, 2 hours): 4.24 ×10⁻⁶ cm/s
- Hepatic Extraction Ratio (ER) ([2]; human): < 0.27
- half-life at 1 µM ([2]; liver microsomes, human microsomes, 1 µM, read-out: In vitro T1/2): > 185 min
- Cl Blood as % LBF ([3]; female CD-1 mice): > 100 % LBF
- concentration at 2 h ([3]; female, CD-1, mouse, whole blood, 2 hours following dosing, read-out: blood level at last detected time): 8.1 nM
- clearance ([3]; mouse, whole blood, female CD-1 mice, read-out: Cl Blood): 162 ± 28 mL/min/kg
- Vd ([3]; mouse, whole blood, female CD-1 mice, read-out: Vss): 3.1 ± 1.7 L/kg
- Cmax ([3]; mouse, whole blood, blood, DMSO:H2O 2:98, female CD-1 mice): 1200 ± 208 nM
- AUC(0-inf) [3, 4]: 0.335 ± 0.06 µM·h
- AUC(0-t) [3, 4]: 0.327 ± 0.057 µM·h
- Tmax [3, 4]: 4.98 min
- half-life ([3]; mouse, whole blood, terminal half-life, female CD-1 mice): 43.8 ± 36.6 min
SMILES: O=C(O)CNc1c(Nc2ccc(C(F)(F)F)cc2)c(=O)c1=O [SSA 5]
